In series [1] the test system is HCM cells. Briefly: Western blot of endothelial cell marker (CD31) and muscle cell marker (Troponin T). It is filed as cell-based, human. The conditions noted are these: FIG. 3B. An excerpt:
(§1) FIG. 3 A: Graphs showing mRNA expression of the myocardial progenitor cell markers (GATA4 and VCAM-1), the maturation marker (MYL2), and senescence markers (CDKN1A and CDKN2A) for cardiomyocytes, in the cardiomyocytes treated with the TGFβ receptor inhibitor (A) or the ROCK inhibitor (Y). In each graph, the vertical axis represents the expression amount (Relative mRNA expression) of each mRNA when the expression amount of the cells before culture is 1, and the numerical values on the horizontal axis represent culture periods (day). B: Photographs showing the results of confirming, by Western blot, loss of the expression of an endothelial cell marker (CD31), and expression of a muscle cell marker (Troponin T) and Actin, in primary human cardiomyocytes (HCM) or primary human coronary artery smooth muscle cells (PC-100-021) treated with the TGFβ receptor inhibitor (A) or the ROCK inhibitor (Y). NT indicates an agent-untreated control, and HUVEC indicates a result of using human umbilical vein endothelial cells (CD31-positive as the endothelial cell marker).

For series [2], the system named is PC-100-021 cells. The series is described as above. The class given is cell-based, human. The conditions noted are these: FIG. 3B.
From the text: as §1

Series [3] has as its system primary human coronary artery smooth muscle cells (PC-100-021). The series can be described thus: Long-term culture with low-speed imaging in presence of low molecular weight compound. The following applies: FIG. 1C. The class given is cell-based.
Series [4] relates to HCM cells. The series can be described thus: Quantitative RT-PCR of progenitor, maturation and senescence markers. It is filed as cell-based, human. The conditions noted are these: for number of cell death due to the treatment: concluded from senescence markers. The method, then: (§2) The subcultured human cardiomyocytes were seeded at 0.5×10^2 cells/cm^2 on a 35 mm plate (IWAKI) containing: 3 mL of a Vascular Smooth Muscle Cell growth medium containing 3-(6-methyl-2-pyridinyl)-n-phenyl-4-(4-quinolinyl)-1H-pyrazole-1-carbothioamide (A-83-01: A) (final concentration: 1 AM) as a low molecular weight compound TGFβ receptor inhibitor or (1R,4r)-4-((R)-1-aminoethyl)-N-(pyridin-4-yl)cyclohexanecarboxamide (Y-27632: Y) (final concentration: 10 AM) as a ROCK inhibitor, both of the compounds A-83-01 and Y-27632, or free of them: or a Myocyte basal medium. On Day 3, the Vascular Smooth Muscle Cell growth medium containing each low molecular weight compound or the Myocyte basal medium was replaced. Thereafter, the medium was replaced in the same manner every three days.
(§3) Total RNA was isolated from each cardiomyocyte 1 month and 2 months after culture in the presence of the test low molecular weight compound using miRNeasy Mini Kit (QIAGEN). Reverse transcription reactions were performed using High-Capacity cDNA Reverse Transcription Kit Lifetechnologies according to manufacturer's guidelines. PCR was performed using the obtained cDNA as a template and a Taqman Probe (ThermoFisher). An expression level of a target gene was standardized with β-actin as an endogenous control.

Series [5] deals with PC-100-021 cells. Described as above. It is filed as cell-based, human. The following applies: for number of cell death due to the treatment: concluded from senescence markers. As for the experimental part: as §2, §3
Series [6] concerns primary human cardiomyocytes (HCM). The series can be described thus: Long-term culture with low-speed imaging of cardiomyocytes in presence of low molecular weight compound. The conditions noted are these: for long-term culture (proliferation): HCM, FIG. 1B; for cell morphology of cardiomyocytes: long-term culture, FIG. 1A. The class given is cell-based. As for the experimental part:
as §2
After the medium replacement, low-speed imaging was performed using a BZ9000 all-in-one fluorescence microscope (KEYENCE). In addition, the individual cells were tracked throughout the imaging period (110 days), and the final number of cells derived from each cell was measured.

Setting [7] is: 1 and 2 months culture, vs agent untreated group, FIG. 2.
[8] abbreviates: culture periods in days, FIG. 3A.

The structures appear in SMILES notation.

In the case of `Cc1cccc(-c2nn(C(=S)Nc3ccccc3)cc2-c2ccnc3ccccc23)n1` [A-83-01, 3-(6-methyl-2-pyridinyl)-n-phenyl-4-(4-quinolinyl)-1H-pyrazole-1-carbothioamide], the “expression of endothelial cell marker (CD31)” value in the series on HCM cells [1] and in the series with PC-100-021 cells [2] was “not expressed” in each case. Besides, the “expression of muscle cell marker” value in the series with HCM cells [1] and with PC-100-021 cells [2] was “expressed” throughout. Besides, the “long-term culture (proliferation)” value in series [3] and in series [6] was “long-term culture was induced” in each case. Also, the “decrease in progenitor cell markers (GATA4 and VCAM-1) mRNA during culture” value in the series on HCM cells [4] (setting [7]) and with PC-100-021 cells [5] (setting [7]) was “promoted” throughout. Further, the “increase in maturation marker (MYL2) mRNA during culture” value with HCM cells [4] (setting [7]) is “promoted”; with HCM cells [4] (setting [8]) it was “promote”; in the series on PC-100-021 cells [5] (setting [7]), “promoted”; with PC-100-021 cells [5] (setting [8]), “promote”. Moreover, the “expression of senescence markers (CDKN1A and CDKN2A) mRNA” value in the series on HCM cells [4] (FIG. 3A) and in the series on PC-100-021 cells [5] (FIG. 3A) was “hardly expressed” in each case. The “number of cell death due to the treatment” value in the series with HCM cells [4] and in the series on PC-100-021 cells [5] was “small” throughout. Also, the “cell morphology of cardiomyocytes” value in series [6] is “maintained the original cell morphology”.
With `C[C@@H](N)[C@H]1CC[C@H](C(=O)Nc2ccncc2)CC1` [Y-27632, (1R,4r)-4-((R)-1-aminoethyl)-N-(pyridin-4-yl)cyclohexanecarboxamide], the “expression of endothelial cell marker (CD31)” value in the series on HCM cells [1] and with PC-100-021 cells [2] was “not expressed” each time. For the same molecule, the “expression of muscle cell marker” value in the series with HCM cells [1] and in the series with PC-100-021 cells [2] was “expressed” each time. In addition, the “decrease in progenitor cell markers (GATA4 and VCAM-1) mRNA during culture” value in the series with HCM cells [4] (setting [7]), with HCM cells [4] (setting [8]), in the series on PC-100-021 cells [5] (setting [7]) and with PC-100-021 cells [5] (setting [8]) was “suppressed” in each case. In addition, the “increase in maturation marker (MYL2) mRNA during culture” value with HCM cells [4] (setting [7]), in the series with HCM cells [4] (setting [8]), with PC-100-021 cells [5] (setting [7]) and with PC-100-021 cells [5] (setting [8]) was “suppressed” throughout. The “expression of senescence markers (CDKN1A and CDKN2A) mRNA” value with HCM cells [4] (FIG. 3A) and in the series on PC-100-021 cells [5] (FIG. 3A) was “hardly expressed” throughout. The “number of cell death due to the treatment” value with HCM cells [4] and in the series with PC-100-021 cells [5] was “small” each time. Also, in series [6], the “long-term culture (proliferation)” value was “long-term culture was induced”. Moreover, in series [6], the “cell morphology of cardiomyocytes” value is given as “maintained the original cell morphology”.
